Assay results taken from US20230053540A1, “TREATMENT OF LIVER INJURY” (Massachusetts Institute of Technology, priority 2019, published 2023).

Test system: hepatocytes
Assay: Seq-Well scRNA-Seq of hepatocytes after APAP overdose (signature scores, DEG vs untreated)
Assay type: in vivo, mouse
Settings: A96 vs untreated (UT)

Structure (SMILES): CC(=O)Nc1ccc(O)cc1 [APAP, acetaminophen]
- Herpud1 avg_logFC: 0.3333
- Herpud1 pct.1: 0.9
- Hhex avg_logFC: 0.3209
- Hhex pct.1: 0.543
- Hmgcl avg_logFC: 0.353
- Hmgcl pct.1: 0.871
- Hmgcs1 avg_logFC: 0.2967
- Hmgcs1 pct.1: 0.858
- Hmgcs2 avg_logFC: 0.4234
- Hmgcs2 pct.1: 0.996
- Hnf4a avg_logFC: 0.2824
- Hnf4a pct.1: 0.858
- Hpgd avg_logFC: 0.3398
- Hpgd pct.1: 0.588
- Hpx avg_logFC: −0.264
- Hpx pct.1: 0.998
- Hrg avg_logFC: 0.4095
- Hrg pct.1: 0.923
- Hsd3b5 avg_logFC: −0.7981
- Hsd3b5 pct.1: 0.25
- Hsd17b7 avg_logFC: 0.3056
- Hsd17b7 pct.1: 0.56
- Hsd17b10 avg_logFC: 0.3092
- Hsd17b10 pct.1: 0.841
- Hspa8 avg_logFC: 0.4257
- Hspa8 pct.1: 0.905
- Igfbp4 avg_logFC: 0.4189
- Igfbp4 pct.1: 0.964
- Ildr2 avg_logFC: 0.2509
- Ildr2 pct.1: 0.356
- Insig2 avg_logFC: 0.3594
- Insig2 pct.1: 0.928
- Iqgap2 avg_logFC: 0.2645
- Iqgap2 pct.1: 0.799
- Kif1b avg_logFC: 0.3909
- Kif1b pct.1: 0.686
- Lcat avg_logFC: 0.3294
- Lcat pct.1: 0.886
- Lifr avg_logFC: −0.4875
- Lifr pct.1: 0.556
- Lipa avg_logFC: 0.4376
- Lipa pct.1: 0.791
- Lpgat1 avg_logFC: 0.275
- Lpgat1 pct.1: 0.671
- Lpin2 avg_logFC: 0.2841
- Lpin2 pct.1: 0.781
- Lrrc58 avg_logFC: 0.2641
- Lrrc58 pct.1: 0.543
- Man2a1 avg_logFC: 0.3324
- Man2a1 pct.1: 0.737
- Maob avg_logFC: 0.2722
- Maob pct.1: 0.708
- Mat1a avg_logFC: 0.9328
- Mat1a pct.1: 1
- Mettl7b avg_logFC: 0.3784
- Mettl7b pct.1: 0.949
- Mfsd2a avg_logFC: 0.3802
- Mfsd2a pct.1: 0.41
- Mia3 avg_logFC: 0.3563
- Mia3 pct.1: 0.81
- Mt1 avg_logFC: 0.638
- Mt1 pct.1: 0.839
- Mt2 avg_logFC: 0.3136
- Mt2 pct.1: 0.548
- Mtdh avg_logFC: 0.321
- Mtdh pct.1: 0.649
- Mttp avg_logFC: 0.2755
- Mttp pct.1: 0.816
- Mup3 avg_logFC: −0.4098
- Mup3 pct.1: 1
- Mup5 avg_logFC: −1.266
- Mup5 pct.1: 0.538
- Mup6 avg_logFC: −2.021
- Mup6 pct.1: 0.778
- Mup7 avg_logFC: −1.145
- Mup7 pct.1: 0.938
- Mup8 avg_logFC: −0.7871
- Mup8 pct.1: 0.067
- Mup9 avg_logFC: −1.818
- Mup9 pct.1: 0.619
- Mup11 avg_logFC: −1.559
- Mup11 pct.1: 0.905
- Mup12 avg_logFC: −0.8331
- Mup12 pct.1: 0.571
- Mup15 avg_logFC: −1.239
- Mup15 pct.1: 0.156
- Mup16 avg_logFC: −1.119
- Mup16 pct.1: 0.567
- Mup17 avg_logFC: −1.889
- Mup17 pct.1: 0.98
- Mup18 avg_logFC: −1.297
- Mup18 pct.1: 0.928
- Mup19 avg_logFC: −1.258
- Mup19 pct.1: 0.973
- Mup21 avg_logFC: −0.94
- Mup21 pct.1: 0.676
- Ncl avg_logFC: 0.2809
- Ncl pct.1: 0.731
- Ndrg2 avg_logFC: 0.3802
- Ndrg2 pct.1: 0.985
- Nfe2l1 avg_logFC: 0.2902
- Nfe2l1 pct.1: 0.508
- Nfe2l2 avg_logFC: 0.3048
- Nfe2l2 pct.1: 0.465
- Nfib avg_logFC: 0.2501
- Nfib pct.1: 0.55
- Nr1i3 avg_logFC: 0.3735
- Nr1i3 pct.1: 0.625
- Nucks1 avg_logFC: 0.2509
- Nucks1 pct.1: 0.621
- Nudt7 avg_logFC: −1.14
- Nudt7 pct.1: 0.602
- Pabpc1 avg_logFC: 0.3693
- Pabpc1 pct.1: 0.766
- Palmd avg_logFC: 0.2584
- Palmd pct.1: 0.43
- Pbld1 avg_logFC: 0.2811
- Pbld1 pct.1: 0.723
- Pcbp2 avg_logFC: 0.3113
- Pcbp2 pct.1: 0.621
- Pdia6 avg_logFC: −0.3359
- Pdia6 pct.1: 0.611
- Pdk1 avg_logFC: 0.2561
- Pdk1 pct.1: 0.438
- Pex11a avg_logFC: 0.462
- Pex11a pct.1: 0.7
- Phyh avg_logFC: 0.2541
- Phyh pct.1: 0.998
- Pigr avg_logFC: 0.2754
- Pigr pct.1: 0.957
- Plin5 avg_logFC: 0.2663
- Plin5 pct.1: 0.532
- Pltp avg_logFC: 0.2919
- Pltp pct.1: 0.237
- Pnp1a8 avg_logFC: 0.3083
- Pnp1a8 pct.1: 0.723
- Ppap2b avg_logFC: 0.2573
- Ppap2b pct.1: 0.593
- Ppara avg_logFC: 0.3055
- Ppara pct.1: 0.614
- Ppib avg_logFC: −0.3519
- Ppib pct.1: 0.696
- Ppm1a avg_logFC: 0.276
- Ppm1a pct.1: 0.571
- Ppp2r5a avg_logFC: 0.3493
- Ppp2r5a pct.1: 0.764
- Prkd3 avg_logFC: 0.305
- Prkd3 pct.1: 0.682
- Prlr avg_logFC: 0.3611
- Prlr pct.1: 0.574
- Pten avg_logFC: 0.3025
- Pten pct.1: 0.64
- Ptms avg_logFC: 0.3243
- Ptms pct.1: 0.806
- Ptp4a2 avg_logFC: 0.259
- Ptp4a2 pct.1: 0.691
- Ptplad1 avg_logFC: 0.2783
- Ptplad1 pct.1: 0.654
- Ptprd avg_logFC: 0.2719
- Ptprd pct.1: 0.582
- Pxmp4 avg_logFC: 0.2794
- Pxmp4 pct.1: 0.687
- Rdh7 avg_logFC: 0.2671
- Rdh7 pct.1: 0.995
- Rdh16 avg_logFC: 0.3716
- Rdh16 pct.1: 0.494
- Reep6 avg_logFC: 0.3193
- Reep6 pct.1: 0.891
- Retsat avg_logFC: 0.5333
- Retsat pct.1: 0.957
- Saa1 avg_logFC: −1.157
- Saa1 pct.1: 0.232
- Sc4mol avg_logFC: 0.2814
- Sc4mol pct.1: 0.781
- Sdhc avg_logFC: 0.3181
- Sdhc pct.1: 0.76
- Sec14l2 avg_logFC: 0.2724
- Sec14l2 pct.1: 0.939
- Secisbp2l avg_logFC: 0.2781
- Secisbp2l pct.1: 0.529
- Selenbp2 avg_logFC: −1.258
- Selenbp2 pct.1: 0.612
- Sepp1 avg_logFC: 0.2839
- Sepp1 pct.1: 1
- Serpina1a avg_logFC: −0.2708
- Serpina1a pct.1: 0.991
- Serpina1b avg_logFC: −0.3845
- Serpina1b pct.1: 0.996
- Serpina1c avg_logFC: −0.3176
- Serpina1c pct.1: 0.998
- Serpina1e avg_logFC: −1.134
- Serpina1e pct.1: 0.977
- Serpina3k avg_logFC: −0.3036
- Serpina3k pct.1: 1
- Serpina12 avg_logFC: −0.5326
- Serpina12 pct.1: 0.226
- Serpinf1 avg_logFC: 0.2572
- Serpinf1 pct.1: 0.934
- Sh3glb1 avg_logFC: 0.2538
- Sh3glb1 pct.1: 0.433
- Slc4a4 avg_logFC: 0.4025
- Slc4a4 pct.1: 0.609
